{
  "source": "patent US20250059232A1",
  "about": "“PENTAPEPTIDE AND USE THEREOF” (ENSOL BIOSCIENCES INC., priority 2021, published 2025)",
  "key": {"MDA-MB-231": {"test_system": "MDA-MB-231", "assay": "MDA-MB-231 fat pad xenograft in athymic nude mouse: tumor volume and weight", "assay_type": "in vivo, human", "protocol": "5×10^6 cells/head of the human triple negative breast cancer cell line MDA-MB-231 (American Type Culture Collection (ATCC)) were mixed with Matrigel and PBS (1:1). 100 ul of the mixture was injected into the right third fat pad of 7-week-old female athymic nude mouse. After the transplantation, drug administration started from an average tumor size of 80 mm^3. Paclitaxel 20 mg/kg was administered on Day 0 and on Day 1. That is, the paclitaxel 20 mg/kg was administered a total of two times. Then, the peptide of Example 1 was administered in a dose of 100 mg/kg on Day 2, Day 4, and Day 6. That is, the peptide of Example 1 was administered a total of three times. Tumor volumes were measured 3 times a week for 3 weeks after administration of the first dose. Tumor weights were measured by necropsy after the end of the experiment. For each group, ten mice were used.\nTumor volume changes over time for each group are shown in FIG. 8, and tumor weight on the eighteenth day after the administration of the first dose for each group is shown in FIG. 9. FIG. 8 is a graph illustrating the changes in tumor volume over time after sample administration in animal experimentation. In FIG. 8, the x-axis represents the number of days elapsed after the start of administration and the y-axis represents the tumor volume change (mm^3). FIG. 9 is a graph illustrating a tumor weight for each test group in animal experimentation. In FIG. 9, the x-axis represents test groups and the y-axis represents tumor weights (mg)."}, "[1]": {"test_system": "PC3 cells co-cultured with NK92 cells", "assay": "PC3/NK92 co-culture: Granzyme B expression by immuno-fluorescence staining", "assay_type": "cell-based, human", "conditions": "300 uM with 10 μg/ml anti-PD-L1; 12 hours", "protocol": "The experiment described below was performed to identify the tumor suppression mechanism of the combination treatment of the peptide of Example 1 and anti-PD-L1, which is an immune checkpoint inhibitor. First, prostate cancer cell lines PC3 (ATCC) and NK92 (Immunotherapy Research Center, Korea Research Institute of Bioscience and Biotechnology) were co-cultured. 7.8×10^4 PC3 cells were seeded in 4-well chambers and stabilized by culturing overnight, and the PC3 cells were treated with 10 μg/ml of the anti-PD-L1 and 300 uM of the peptide of Example 1 for each condition while the same number of NK92 cells were additionally seeded. After 12 hours, the NK92 cells were removed by washing, and only tumor cells were fixed. Next, the expression level of Granzyme B was determined through immuno-fluorescence staining. The Granzyme B expression levels were calculated as proportions relative to the control. FIG. 12 is a graph showing a Granzyme B expression level for each test group in an anticancer effect evaluation test, in which the x-axis represents the test group and the y-axis represents the Granzyme B expression level (%) relative to the control group."}, "PC3": {"test_system": "PC3", "assay": "PC3 cell viability (CCK-8) in NK92 co-culture with anti-PD-L1", "assay_type": "cell-based, human", "conditions": "300 uM with 10 ug/ml anti-PD-L1, 24/48/72 hours of co-culturing", "protocol": "(§1) The experiment described below was performed to evaluate the tumor cell proliferation inhibitory effect of the combination treatment of the peptide of Example 1 and the anti-PD-L1, which is an immune checkpoint inhibitor. First, 5×10^3 cells of a human prostate cancer cell line PC3, 5×10^3 cells of a human lung cancer cell line A549 (Korean Cell Line Bank), and 1×10^4 cells of a human triple negative breast cancer cell line MDA-MB-231 (ATCC) were seeded in 96 wells and stabilized by culturing overnight. Then, the seeded cells were treated with 10 ug/ml of the anti-PD-L1 and 300 uM of the peptide of Example 1, for each condition while NK92 cells for 5×10^3 cells of each of the PC3 cell line and the MDA-MB-231 cell line and 2.5×10^3 cells of the A549 cell line were additionally seeded. After 24/48/72 hours of co-culturing (for PC3 and MDA-MB-231) and 24/48 hours of co-culturing (for A549), the NK92 cells were removed by washing, and the cancer cell viability was measured by CCK-8 addition. FIG. 15 is a graph illustrating the changes in PC3 cell viability over culturing time for each test group in an anticancer effect evaluation test. In FIG. 15, the x-axis represents culturing time and the y-axis represents cell viability (%). FIG. 16 is a graph illustrating the changes in A549 cell viability over culturing time for each test group in an anticancer effect evaluation test. […]"}, "A549": {"test_system": "A549", "assay": "A549 cell viability (CCK-8) in NK92 co-culture with anti-PD-L1", "assay_type": "cell-based, human", "conditions": "300 uM with 10 ug/ml anti-PD-L1, 24/48 hours of co-culturing", "protocol": "as §1"}, "[2]": {"assay": "4-week repeated subcutaneous toxicity test in rats", "assay_type": "in vivo, rat", "protocol": "Ten female and male rats were administered the pentapeptide of Example 1 subcutaneously at doses of 500, 1000, 2000 mg/kg daily for 4 weeks to investigate toxicity, and a safety evaluation test was performed. Specifically, general symptom observation, body weight measurement, feed consumption measurement, ophthalmological examination, and urinary examination were performed. After the end of the observation period, hematology and clinical biochemistry test, organ weight measurement, visual examination at autopsy, and histopathological examination were performed. […] Synthesizing the results described above, the no observed adverse effect level (NOEAL) for female and male was determined to be greater than or equal to 2,000 mg/kg/day when the pentapeptide of Example 1 was administered repeatedly subcutaneously to the rats for 4 weeks."}, "[3]": {"assay": "4-week repeated subcutaneous toxicity and toxicokinetic test in beagle dogs", "assay_type": "in vivo, beagle dog", "protocol": "In addition, 3 female and male beagle dogs were used per group to repeatedly subcutaneously administer the pentapeptide of Example 1 at doses of 40, 120, 400 mg/kg for 4 weeks daily. During the test period, general symptom observation, weight and feed intake measurements, ophthalmological examination, electrocardiogram, urinalysis, hematology and clinical biochemistry test, and toxicokinetic examination were performed. In addition, organ weight measurements, visual inspection, and histopathological examination of autopsy subjects were performed. […] Thus, the NOAEL (No Observed Adverse Effect Level) of the pentapeptide of Example 1 for female and male beagle dogs under the presented test conditions is determined to be 400 mg/kg/day."}, "[4]": {"conditions": "100 mg/kg co-administered with paclitaxel, eighteenth day after first dose"}, "[5]": {"conditions": "500, 1000, 2000 mg/kg subcutaneous daily for 4 weeks"}, "[6]": {"conditions": "40, 120, 400 mg/kg subcutaneous daily for 4 weeks"}},
  "data": [
    {"substance": "Ac-QLHLD-OH [Example 1, acetyl-QLHLD]", "values": [
      {"measurement": "CR (mice in which the tumor disappeared)", "setting": "MDA-MB-231; 100 mg/kg Day 2, 4, 6 after paclitaxel 20 mg/kg Day 0 and 1, ten mice", "result": 20, "unit": "%"},
      {"measurement": "Reduction in tumor volume compared to control group", "setting": "MDA-MB-231; [4]", "result": 48, "unit": "%"},
      {"measurement": "Reduction in tumor weight compared to control group", "setting": "MDA-MB-231; [4]", "result": 51, "unit": "%"},
      {"measurement": "Day on which the tumor disappeared", "setting": "MDA-MB-231; co-administered with paclitaxel, two mice", "result": 14, "unit": "days"},
      {"measurement": "Duration of the efficacy of a single-cycle drug treatment", "setting": "MDA-MB-231; combination administration with paclitaxel", "result": "≤ 2", "unit": "weeks"},
      {"measurement": "Granzyme B expression in tumor cells compared to the group treated with only anti-PD-L1", "setting": "[1]", "result": "increased significantly"},
      {"measurement": "Cancer cell viability compared to the group treated with only anti-PD-L1", "setting": "PC3", "result": "significant decrease in cancer cell viability"},
      {"measurement": "Cancer cell viability compared to the group treated with only anti-PD-L1", "setting": "A549", "result": "significant decrease in cancer cell viability"},
      {"measurement": "Adverse findings related to the pentapeptide", "setting": "[2]; [5]", "result": "no adverse findings"},
      {"measurement": "Deaths", "setting": "[2]; [5]", "result": "no deaths occurred"},
      {"measurement": "No observed adverse effect level (NOEAL)", "setting": "[2]; female and male, subcutaneous, daily for 4 weeks", "result": "greater than or equal to 2,000 mg/kg/day"},
      {"measurement": "Abnormalities (body weight, feed intake, ophthalmic examination, electrocardiogram, urinalysis, hematology, clinical biochemistry, necropsy, organ weight)", "setting": "[3]; [6]", "result": "No abnormalities"},
      {"measurement": "Deaths", "setting": "[3]; [6]", "result": "no deaths were observed"},
      {"measurement": "Systemic exposure (AUClast, Cmax), dose dependence", "setting": "[3]; Day 1 and Day 28, 40, 120, 400 mg/kg", "result": "approximately proportionally increased with increase in the dose"},
      {"measurement": "Accumulation", "setting": "[3]; Day 1 vs Day 28", "result": "no pentapeptide accumulation"},
      {"measurement": "NOAEL at 4 weeks", "setting": "[3]; both sexes, dog, in vivo, sc, female and male, subcutaneous, daily for 4 weeks, read-out: NOAEL (No Observed Adverse Effect Level)", "result": 400, "unit": "mg/kg/day"}
    ]}
  ]
}
